Experimental data reported in PubChem BioAssay AID977614 (Broad Institute, 2014).
Active and inactive are the calls of the source.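 How the source made its calls: active means parasite count per well reduced by over 3 SD from the mean, with host cell number above 80% of untreated; inactive means the rest.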

System: L. donovani amastigotes in THP-1 macrophages, DAPI imaging, 72 h
Experiment: antileishmanial activity in infected macrophages – imaging, THP-1 host macrophages, single concentration (AID 977614);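 further: signal is the parasite per host cell ratio from DAPI stained kinetoplasts and nuclei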

Row | Structure (SMILES) | AC50
1 | C[C@@H]1CN([C@@H](C)CO)C(=O)CCCn2cc(nn2)CO[C@@H]1CN(C)C(=O)CCC(F)(F)F | > 10 µM (inactive)
2 | COCC(=O)N1C[C@H]2[C@@H](c3ccccc31)[C@H](CO)N2Cc1cc(F)ccc1F | > 10 µM (inactive)
3 | C[C@@H]1CN([C@@H](C)CO)C(=O)CCCn2cc(nn2)CO[C@@H]1CN(C)Cc1ccccc1 | > 10 µM (inactive)
4 | C[C@H](CO)N1C[C@H](C)[C@H](CN(C)Cc2cccc(C(F)(F)F)c2)OCc2cnnn2CCCC1=O | > 10 µM (inactive)
5 | O=C(NC[C@@H]1[C@@H](c2ccccc2)[C@@H](CO)N1Cc1cccnc1)c1ccccn1 | > 10 µM (inactive)
6 | O=C(C1CCC1)N1C[C@@H]2[C@H](c3ccccc31)[C@H](CO)N2Cc1ccccc1 | > 10 µM (inactive)
7 | CN(C[C@@H]1N[C@H](CO)[C@@H]1c1ccc(-c2cccc(F)c2)cc1)C(=O)CC1CC1 | > 10 µM (inactive)
8 | C[C@H](CO)N1C[C@H](C)[C@@H](CN(C)CC2CCCCC2)OCc2cnnn2CCCC1=O | > 10 µM (inactive)
9 | CC(=O)N1[C@@H]2CN(S(=O)(=O)c3ccccc3C)c3ccccc3[C@@H]2[C@@H]1CO | > 10 µM (inactive)
10 | C/C=C/c1ccc([C@H]2[C@@H](CO)N(C(C)=O)[C@@H]2CNC(=O)c2ccccc2)cc1 | > 10 µM (inactive)
11 | COc1ccccc1CN1[C@@H]2CN(C(=O)c3cccnc3)c3ccccc3[C@@H]2[C@@H]1CO | > 10 µM (inactive)
12 | COc1ccccc1C(=O)N1C[C@H]2[C@@H](c3ccccc31)[C@@H](CO)N2CC1CCCC1 | > 10 µM (inactive)
13 | COc1ccc(CN2[C@@H](CO)[C@@H]3c4ccccc4N(C(=O)NC(C)C)C[C@@H]32)cc1 | > 10 µM (inactive)
14 | CC(=O)N1[C@@H](CO)[C@@H](c2ccccc2)[C@@H]1CN(CC1CCC1)C(=O)CN(C)C | > 10 µM (inactive)
15 | COCC(=O)N1C[C@H]2[C@@H](c3ccccc31)[C@H](CO)N2C(=O)c1ccccc1F | > 10 µM (inactive)
16 | O=C(Cc1ccccc1)N1C[C@@H]2[C@H](c3ccccc31)[C@@H](CO)N2S(=O)(=O)c1ccccc1 | > 10 µM (inactive)
17 | O=C(Nc1ccc(F)cc1)N1[C@H](CO)[C@H]2c3ccccc3NC[C@H]21 | > 10 µM (inactive)
18 | O=C(c1cccc(F)c1)N1C[C@@H]2[C@H](c3ccccc31)[C@H](CO)N2Cc1cocn1 | > 10 µM (inactive)
19 | COCC(=O)N1[C@H](CO)[C@H]2c3ccccc3N(C(=O)Nc3ccccc3Cl)C[C@H]21 | > 10 µM (inactive)
20 | C/C=C/c1ccc([C@H]2[C@@H](CO)N(C(C)=O)[C@H]2CNC(=O)c2ccccc2)cc1 | > 10 µM (inactive)
21 | CN(C[C@@H]1[C@@H](c2ccccc2)[C@H](CO)N1Cc1ccccn1)S(C)(=O)=O | > 10 µM (inactive)
22 | Cc1noc(C)c1NC(=O)N(C)C[C@@H]1OCc2cnnn2CCCC(=O)N([C@H](C)CO)C[C@@H]1C | > 10 µM (inactive)
23 | CN1[C@H](CO)[C@H]2c3ccccc3N(C(=O)Nc3cc(F)ccc3F)C[C@H]21 | > 10 µM (inactive)
24 | O=C(c1ccccn1)N1C[C@H]2[C@@H](c3ccccc31)[C@H](CO)N2C(=O)C1CCCCC1 | > 10 µM (inactive)
25 | COc1ccccc1NC(=O)N1C[C@@H]2[C@H](c3ccccc31)[C@@H](CO)N2CC1CCOCC1 | > 10 µM (inactive)
26 | C[C@H]1CN([C@@H](C)CO)C(=O)CCCn2cc(nn2)CO[C@H]1CN(C)Cc1ccccc1 | > 10 µM (inactive)

Row | Structure (SMILES) | AC50
27 | Cc1noc(C)c1S(=O)(=O)N(C)C[C@H]1OCc2cn(nn2)CCCC(=O)N([C@H](C)CO)C[C@@H]1C | > 10 µM (inactive)
28 | C[C@@H]1CN([C@@H](C)CO)C(=O)CCCn2nncc2CO[C@H]1CN(C)C(=O)c1ccc2ccn(C)c2c1 | > 10 µM (inactive)
29 | C[C@H](CO)N1C[C@H](C)[C@@H](CN(C)Cc2ccc(C(=O)Nc3ccccc3N)cc2)OCc2cnnn2CCCC1=O | > 10 µM (inactive)
30 | C[C@@H]1CN([C@H](C)CO)C(=O)CCCn2cc(nn2)CO[C@@H]1CN(C)C(=O)Nc1ccc2c(c1)OCO2 | > 10 µM (inactive)
31 | CCS(=O)(=O)N(C)C[C@H]1[C@@H](c2ccccc2)[C@@H](CO)N1C(=O)CN(C)C | > 10 µM (inactive)
32 | CCCN1[C@H](CO)[C@H](c2ccc(C3=CCCC3)cc2)[C@H]1CNC(=O)NC(C)C | > 10 µM (inactive)
33 | COc1cccc(C(=O)N2C[C@H]3[C@@H](c4ccccc42)[C@@H](CO)N3C(=O)c2cccc(F)c2)c1 | > 10 µM (inactive)
34 | COCC(=O)N1[C@@H]2CNc3ccccc3[C@@H]2[C@@H]1CO | > 10 µM (inactive)
35 | C/C=C/c1ccc([C@H]2[C@H](CO)N(C(C)=O)[C@H]2CN(CC)C(=O)CN(C)C)cc1 | > 10 µM (inactive)
36 | O=C(Cc1cccnc1)N1[C@H](CO)[C@H](c2ccccc2)[C@@H]1CNCC1CCC1 | > 10 µM (inactive)
37 | C[C@@H]1CN([C@H](C)CO)C(=O)CCCn2nncc2CO[C@@H]1CN(C)Cc1cccc(C(F)(F)F)c1 | > 10 µM (inactive)
38 | O=S(=O)(NC[C@@H]1[C@@H](c2ccccc2)[C@H](CO)N1CC1CC1)c1ccccc1 | > 10 µM (inactive)
39 | C[C@@H]1CN([C@H](C)CO)C(=O)CCCn2nncc2CO[C@@H]1CN(C)CC1CCCCC1 | > 10 µM (inactive)
40 | O=C(c1ccccc1F)N1C[C@@H]2[C@H](c3ccccc31)[C@@H](CO)N2C(=O)Nc1ccccc1 | > 10 µM (inactive)
41 | O=C(Nc1ccc(F)cc1)N1[C@H](CO)[C@@H]2c3ccccc3NC[C@@H]21 | > 10 µM (inactive)
42 | C[C@H](CO)N1C[C@H](C)[C@H](CN(C)Cc2ccc3c(c2)OCCN3C)OCc2cnnn2CCCC1=O | > 10 µM (inactive)
43 | CN1C[C@@H]2[C@H](c3ccccc31)[C@@H](CO)N2S(=O)(=O)c1ccccc1 | > 10 µM (inactive)
44 | C[C@@H]1CN([C@@H](C)CO)C(=O)CCCn2cc(nn2)CO[C@H]1CN(C)C(=O)CCC(F)(F)F | > 10 µM (inactive)
45 | C[C@@H]1CN([C@H](C)CO)C(=O)CCCn2nncc2CO[C@H]1CN(C)S(=O)(=O)c1cn(C)cn1 | > 10 µM (inactive)
46 | C[C@H](CO)N1C[C@H](C)[C@@H](CN(C)C(=O)CCC(F)(F)F)OCc2cn(nn2)CCCC1=O | > 10 µM (inactive)
47 | CCN(C[C@@H]1[C@@H](c2ccccc2)[C@H](CO)N1C(C)=O)C(=O)NC1CCCC1 | > 10 µM (inactive)
48 | COc1ccccc1CN1[C@H](CO)[C@H]2c3ccccc3N(C(=O)C3CCOCC3)C[C@H]21 | > 10 µM (inactive)
49 | CCC(=O)N1[C@H](CO)[C@H](c2ccc(C3=CCCC3)cc2)[C@@H]1CNC1CCCCC1 | > 10 µM (inactive)
50 | O=C(C1CC1)N1C[C@H]2[C@@H](c3ccccc31)[C@H](CO)N2C(=O)c1ccccc1 | > 10 µM (inactive)
51 | CCc1csc(N2[C@H](CO)[C@H](c3ccccc3)[C@@H]2CN(C)C(=O)C2CCC2)n1 | > 10 µM (inactive)
52 | CCN(C[C@@H]1[C@@H](c2ccccc2)[C@H](CO)N1C(=O)COC)S(C)(=O)=O | > 10 µM (inactive)

Row | Structure (SMILES) | AC50
53 | COc1ccc(NC(=O)N(C)C[C@@H]2OCc3cnnn3CCCC(=O)N([C@H](C)CO)C[C@H]2C)c(OC)c1 | > 10 µM (inactive)
54 | O=C(Cc1ccccn1)N1[C@@H]2CNc3ccccc3[C@@H]2[C@@H]1CO | > 10 µM (inactive)
55 | C/C=C/c1ccc([C@H]2[C@@H](CO)N(C(=O)C3CC3)[C@H]2CNC(=O)NC(C)C)cc1 | > 10 µM (inactive)
56 | O=C(NC[C@@H]1[C@H](c2ccccc2)[C@@H](CO)N1Cc1cccnc1)c1ccccn1 | > 10 µM (inactive)
57 | C[C@H](CO)N1C[C@H](C)[C@H](CN(C)C(=O)Nc2cccc(Oc3ccccn3)c2)OCc2cnnn2CCCC1=O | > 10 µM (inactive)
58 | C[C@H]1CN([C@@H](C)CO)C(=O)CCCn2nncc2CO[C@H]1CN(C)C(=O)Nc1ccc2c(c1)OCCO2 | > 10 µM (inactive)
59 | CCC(=O)N1[C@@H](CO)[C@@H]2c3ccccc3N(S(=O)(=O)c3ccc(F)cc3)C[C@@H]21 | > 10 µM (inactive)
60 | O=C(CC(F)(F)F)N1C[C@H]2[C@@H](c3ccccc31)[C@@H](CO)N2CC1CCOCC1 | > 10 µM (inactive)
61 | COc1ccccc1CN1[C@@H](CO)[C@@H]2c3ccccc3N(C(=O)c3cccnc3)C[C@@H]21 | > 10 µM (inactive)
62 | C[C@H]1CN([C@@H](C)CO)C(=O)CCCn2cc(nn2)CO[C@@H]1CN(C)C(=O)NC1CCCCC1 | > 10 µM (inactive)
63 | C[C@H]1CN([C@@H](C)CO)C(=O)CCCn2cc(nn2)CO[C@@H]1CN(C)C(=O)c1ccc(N2CCN(C)CC2)cc1 | > 10 µM (inactive)
64 | C/C=C/c1ccc([C@H]2[C@@H](CO)N(C(C)=O)[C@@H]2CN(CC)C(=O)CN(C)C)cc1 | > 10 µM (inactive)
65 | C[C@@H]1CN([C@@H](C)CO)C(=O)CCCn2nncc2CO[C@H]1CN(C)C(=O)c1ccc(N2CCN(C)CC2)cc1 | > 10 µM (inactive)
66 | C/C=C/c1ccc([C@@H]2[C@H](CO)N[C@H]2CN(CC)C(=O)CN2CCOCC2)cc1 | > 10 µM (inactive)
67 | CCCN1[C@H](CO)[C@H](c2ccc(C#CC(C)C)cc2)[C@@H]1CN(C)S(C)(=O)=O | > 10 µM (inactive)
68 | COCC(=O)N(C)C[C@H]1[C@H](c2ccccc2)[C@H](CO)N1C(=O)Cc1ccncc1 | > 10 µM (inactive)
69 | COCC(=O)N(C[C@@H]1[C@@H](c2ccccc2)[C@H](CO)N1C(=O)NC(C)C)C(C)C | > 10 µM (inactive)
70 | C[C@@H]1CN([C@H](C)CO)C(=O)CCCn2nncc2CO[C@H]1CN(C)C(=O)Nc1cccc(Oc2ccccn2)c1 | > 10 µM (inactive)
71 | CN1[C@@H]2CNc3ccccc3[C@@H]2[C@@H]1CO | > 10 µM (inactive)
72 | CN1C[C@H]2[C@@H](c3ccccc31)[C@H](CO)N2C(=O)C1CCOCC1 | > 10 µM (inactive)
73 | CC(=O)N1[C@@H](CO)[C@@H](c2ccccc2)[C@@H]1CN(CC(C)C)C(=O)c1ccccn1 | > 10 µM (inactive)
74 | O=C(NC[C@@H]1[C@H](c2ccccc2)[C@@H](CO)N1C(=O)C1CCC1)NC1CCCC1 | > 10 µM (inactive)
75 | CCN(C[C@H]1[C@H](c2ccccc2)[C@@H](CO)N1C(C)=O)C(=O)NC1CCCC1 | > 10 µM (inactive)
76 | C[C@H]1CN([C@@H](C)CO)C(=O)CCCn2cc(nn2)CO[C@@H]1CN(C)C(=O)Oc1ccc2ccccc2c1 | > 10 µM (inactive)
77 | O=C(CC1CC1)N1[C@H](CO)[C@H]2c3ccccc3N(S(=O)(=O)c3ccccc3F)C[C@H]21 | > 10 µM (inactive)
